Reference: article PMC10216731 (2023)

How the values were obtained:
[1] = system: aptamer for AMP (Apt) (DNA, aptamer) GCGGGCGGTTGTATAGCGG; test: fluorescence recovery by release of TPE-Am; conditions: 99% PBS (PBS:DMSO), pH 7.4, 25 °C, aptamer 500 nM
[2] = system: aptamer for AMP (Apt) (DNA, aptamer) GCGGGCGGTTGTATAGCGG; test: fluorescence quenching of TPE-Am, lg[(F0-F)/F] against lg[Q] plot; conditions: Na+, K+ from 10 mM PBS (Na2HPO4, KH2PO4, NaCl, KCl); individual cation concentrations not given; 305 K; PBS:DMSO 99% PBS; TPE-Am aggregated; also measured at 287 and 318 K; apparent
[3] = TPE-Am displacement, highest tested 100 nM

CC1(C)S[C@@H]2[C@H](NC(=O)[C@H](N)c3ccccc3)C(=O)N2[C@H]1C(=O)O
binding ([1]; TPE-Am 1 μM displaced, 10 nM AMP): yes

CC[C@H]1OC(=O)[C@H](C)[C@@H](O[C@H]2C[C@@](C)(OC)[C@@H](O)[C@H](C)O2)[C@H](C)[C@@H](O[C@@H]2O[C@H](C)C[C@H](N(C)C)[C@H]2O)[C@](C)(O)C[C@@H](C)/C(=N\OCOCCOC)[C@H](C)[C@@H](O)[C@]1(C)O
binding [1, 3]: no

CN(C)[C@@H]1C(=O)C(C(N)=O)=C(O)[C@@]2(O)C(=O)C3=C(O)c4c(O)cccc4[C@@](C)(O)[C@H]3C[C@@H]12
binding [1, 3]: no

Nc1ccc(C(=C(c2ccccc2)c2ccccc2)c2ccccc2)cc1
Kb [2]: 626000 L/mol

O=C(N[C@H](CO)[C@H](O)c1ccc([N+](=O)[O-])cc1)C(Cl)Cl
binding [1, 3]: no

O=[N+]([O-])N=C1NCCN1Cc1ccc(Cl)nc1
binding [1, 3]: no
